This note sets out measurements from patent US11952374B2, “Bicyclic compounds” (Aligos Therapeutics, Inc., priority 2020, dated 2024).

Broadly, the pEC50 is −log10 of the EC50, conventionally taken in molar units. One may read the CC50 as the concentration at which the toxic effect on the cells reaches its halfway point. Low values mean harm at low concentration, high ones better tolerance by the cells.

The test system of one series is HBV. Put plainly: HBV-DNA antiviral assay using HepG2.117 cells (intracellular HBV DNA by qPCR). In kind it is cell-based, HBV genotype D. As to conditions: HBV DNA inhibition, HepG2.117 cells, 3 days incubation, read-out: EC50. The procedure: (§1) The following assay procedure describes the HBV antiviral assay, using HepG2.117 cells, which carry a stably integrated genotype D HBV genome under the control of a Tet-off promoter, and intracellular HBV DNA quantification as endpoint. Cell viability is assessed in parallel by measuring the intracellular ATP content using CellTiter-Glo 2.0 (Promega).
On day 0, HepG2.117 cells (which are maintained in routine cell culture with doxycycline present in the medium at a final concentration of 1 μg/mL) are seeded in 96-well plates (white with clear bottom) at a density of 2.0×10^4 cells/well (0.1 mL/well) in medium without doxycycline to induce pgRNA transcription and subsequent formation of HBV particles. The cells are incubated at 37° C. and 5% CO2.
(§2) On day 1, medium is removed from each well, the test articles are diluted in culture medium without doxcycyline and 100 μL was added to cell culture wells (9 concentrations, 4-fold dilution). For each plate, 6 untreated (merely DMSO) wells are included. The final concentration of DMSO in the culture medium is 2%. Each plate is prepared in duplicate (one for HBV DNA extraction, one for CellTiter-Glo 2.0 measurement). The cells are incubated at 37° C. and 5% CO2 for 3 days.
(§3) On day 4, cell viability is assessed using CellTiter-Glo 2.0 and cell lysates are prepared for HBV DNA extraction and subsequent quantification by qPCR.
Medium is removed from each well and 100 μL of 0.33% NP-40 in H2O was added to each well. Plates are sealed, incubated at 4° C. for 5 mins, vortexed extensively and centrifuged briefly. Next, 35 μL of lysate is added to 65 μL QuickExtract DNA Extraction Solution (Epicentre) in a PCR plate for each well. PCR plate is incubated at 65° C. for 6 mins, 98° C. for 2 mins and finally cooled to 4° C. HBV DNA is then quantified by qPCR with HBV-specific primers and probes as specified in Table 2 using the Bio-Rad SSOAdvanced Universal Probes Supermix on a CFX96 machine (Bio-Rad). The PCR cycle program consisted of 95° C. for 3 mins, followed by 40 cycles at 95° C. for 10 sec and 60° C. for 30 sec.
A DNA standard is prepared by dilution of an IDT gBlock corresponding to the amplicon with concentrations ranging from 10^A2 to 10^A8 copies/input (i.e. per 4 μL) and used to generate a standard curve by plotting Cq values vs. HBV DNA standard concentration. The quantity of HBV DNA in each sample is determined by interpolating from the standard curve.
(§4) Cell viability is calculated as follows: % Cell viability=(luminescence value of test sample)/(average luminescence value of 2% DMSO control)×100%. HBV DNA inhibition was calculated as follows: 100−(HBV DNA copy number of test sample)/(average HBV DNA copy number of 2% DMSO control)×100%. No normalization to entecavir is required due to the excellent dynamic window of this assay. The CC50, EC50 and EC90 values were determined by dose-response curves fitted using non-linear regression.
For orientation: In qPCR the cycle at which signal appears reflects the starting amount.

For a further series, the system named is HepG2.117 cells. Put plainly: Cell viability by CellTiter-Glo 2.0 (intracellular ATP) in HepG2.117 cells. The settings on record: CellTiter-Glo 2.0, 3 days incubation. In kind it is cell-based. On the procedure:
as §1, §2, §3
(§5) Using the other plates, the cell viability is quantified by CellTiter-Glo 2.0 according to the manufacturer's manual. In brief, 100 μL of reagent solution is added to the culture plates and shaken for 2′. The plates are incubated at room temperature for 10 min and luminescence signal is subsequently measured on a VarioSkan Lux (ThermoFisher) plate reader.
as §4

Assay in series [1]: as above
In kind it is cell-based. The settings on record: human, CellTiter-Glo 2.0, 3 days incubation. The procedure:
as §1, §2, §3, §5, §4
(In general: ATP-based viability assays read luminescence as a measure of living cells.)

pEC50: −log10 of the molar value. Where two headings read alike, the source gives them in different places.

With `CNC(=O)c1ccc(-n2c([C@@H]3CCCN3C(C)C)nc3c(c2=O)CC(C)N(C(=O)c2ccc(Br)c(C(F)(F)F)c2)C3)cc1` (single isomer, unassigned) [Compound 11b], the pEC50 with HBV was 5.30 to 6.30. This molecule showed a CC50 with HepG2.117 cells above 50 µM.
The like results for `CNC(=O)c1ccc(-n2c(NCc3ccccc3-c3ccccn3)nc3c(c2=O)C[C@@H](C)N(C(=O)c2ccc(Br)c(C(F)(F)F)c2)C3)c(Cl)c1` (single isomer, unassigned) [Compound 1b] were, in that order, above 7.30 and above 50 µM.
With `CNC(=O)c1ccc(-n2c(N(CC3CC3)c3ccccc3)nc3c(c2=O)C[C@@H](C)N(C(=O)c2ccc(Br)c(C(F)(F)F)c2)C3)cc1` [Compound 12, (R)-4-(7-(4-bromo-3-(trifluoromethyl)benzoyl)-2-((cyclopropylmethyl)(phenyl)amino)-6-methyl-4-oxo-5,6,7,8-tetrahydropyrido[3,4-d]pyrimidin-3(4H)-yl)-N-methylbenzamide], in the series on HBV (Hepatitis B virus, 72 h), the pEC50 was above 7.30. In addition, the CC50 at 3 days in series [1] was determined as 10.8 µM.
For `CNC(=O)c1ccc(-n2c(-n3ccc(C)n3)nc3c(c2=O)C[C@@H](C)N(C(=O)c2ccc(Br)c(C(F)(F)F)c2)C3)cc1` [Compound 19], in that order: above 7.30 and above 50 µM.
